Results from ChEMBL document CHEMBL2073768, “Effects of xanthine derivatives on the influx and efflux of doxorubicin in P388 and DOX-resistant P388 leukemia cells” (Toxicol Lett, 2002).

Molecular target: ATP-dependent translocase ABCB1 (P-glycoprotein) (Mus musculus, UniProt P21447)
Test: TP_TRANSPORTER: inhibition of DOX efflux (DOX: 18? uM, XT-141: 100 uM) in P388/DOX cells
Assay type: functional, cell-based
Conditions: probe DOX (doxorubicin), read-out: Activity

Chain of ATP-dependent translocase ABCB1 (P-glycoprotein) (P21447 whole entry): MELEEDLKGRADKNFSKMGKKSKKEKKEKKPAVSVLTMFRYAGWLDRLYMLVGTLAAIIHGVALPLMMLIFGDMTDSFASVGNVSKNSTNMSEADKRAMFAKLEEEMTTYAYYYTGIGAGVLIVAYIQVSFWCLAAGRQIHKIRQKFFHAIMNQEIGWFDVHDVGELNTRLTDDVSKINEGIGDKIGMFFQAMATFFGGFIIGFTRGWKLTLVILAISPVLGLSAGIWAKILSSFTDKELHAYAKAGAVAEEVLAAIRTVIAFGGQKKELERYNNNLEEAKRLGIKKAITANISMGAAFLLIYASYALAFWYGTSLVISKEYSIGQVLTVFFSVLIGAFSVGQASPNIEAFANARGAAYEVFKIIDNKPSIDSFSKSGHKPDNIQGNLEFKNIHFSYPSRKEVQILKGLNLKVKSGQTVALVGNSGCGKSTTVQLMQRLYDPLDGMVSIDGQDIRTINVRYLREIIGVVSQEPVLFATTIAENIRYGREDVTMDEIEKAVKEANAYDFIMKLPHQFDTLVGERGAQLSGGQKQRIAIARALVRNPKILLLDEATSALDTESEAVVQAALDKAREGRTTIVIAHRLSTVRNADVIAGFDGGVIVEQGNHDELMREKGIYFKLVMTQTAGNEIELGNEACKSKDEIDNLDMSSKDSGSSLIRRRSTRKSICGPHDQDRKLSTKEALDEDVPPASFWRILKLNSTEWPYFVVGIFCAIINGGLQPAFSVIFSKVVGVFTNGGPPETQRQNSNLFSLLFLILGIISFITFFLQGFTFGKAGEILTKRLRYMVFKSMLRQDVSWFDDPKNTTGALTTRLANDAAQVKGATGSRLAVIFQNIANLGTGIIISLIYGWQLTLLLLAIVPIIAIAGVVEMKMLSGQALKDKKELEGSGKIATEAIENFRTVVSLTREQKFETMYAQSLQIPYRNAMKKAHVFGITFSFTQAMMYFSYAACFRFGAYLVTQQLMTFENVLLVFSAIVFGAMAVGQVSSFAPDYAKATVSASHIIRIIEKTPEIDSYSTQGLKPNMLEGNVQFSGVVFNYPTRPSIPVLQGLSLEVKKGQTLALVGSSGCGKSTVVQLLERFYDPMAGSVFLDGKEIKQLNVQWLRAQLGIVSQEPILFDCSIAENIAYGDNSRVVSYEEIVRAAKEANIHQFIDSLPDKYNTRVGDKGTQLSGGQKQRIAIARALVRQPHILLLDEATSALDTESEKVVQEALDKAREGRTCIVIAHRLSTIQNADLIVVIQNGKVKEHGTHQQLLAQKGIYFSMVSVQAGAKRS

- inhibition at 100 µM: 43%
SMILES: CCCn1c(=O)n(C)c(=O)c2c1ncn2CCCN(C)C
